According to patent US20230301300A1, “HERBICIDAL COMPOSITIONS” (SYNGENTA CROP PROTECTION AG, priority 2020, published 2023):

How the values were obtained:
Assay in all cases: B2 Post-Emergence Efficacy - Test 2
Type in all cases: in vivo
Sida spinosa (SIDSP) = conditions: 15 days after application, 0-100 scale
Method in brief: (§1)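 The compound, dissolved in IF50 and made up as an aqueous spray with 0.2% v/v Genapol X080, is applied post-emergence to plants raised for 12 days from seed. Injury is assessed 15 days afterwards, 0 for undamaged through 100 for fully killed.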

[1] = test system: Panicum miliaceum (PANMI); conditions: 15 days after application, 0=no damage, 100=total kill
Method in brief: as §1

[2] = test system: Brachiaria plantaginea (BRAPL); conditions: 15 days after application, 0=no damage, 100=total kill
Method in brief: as §1

[3] = test system: Digitaria sanguinalis (DIGSA); conditions: 15 days after application, 0=no damage, 100=total kill
Method in brief: as §1

Galium aparine (GALAP) = conditions: 15 days after application, 0-100 scale
Method in brief: as §1

[4] = test system: Euphorbia hetrophylla (EPHHL); conditions: 15 days after application, 0-100 scale
Method in brief: as §1

Setaria faberi (SETFA) = conditions: 15 days after application, 0=no damage, 100=total kill
Method in brief: as §1

Bidens pilosa (BIDPI) = conditions: 15 days after application, 0-100 scale
Method in brief: as §1

Glycine max (GLXMA) = conditions: 15 days after application; for Herbicidal activity GLXMA: 0-100 scale; for Herbicidal activity on a 0-100 scale, GLXMA: 0=no damage, 100=total kill
Method in brief: as §1

Sorghum bicolour (SORVU) = conditions: 15 days after application, 0=no damage, 100=total kill
Method in brief: as §1

Poa annua (POAAN) = conditions: 15 days after application, 0-100 scale
Method in brief: as §1

Eleisine indica (ELEIN) = conditions: 15 days after application, 0=no damage, 100=total kill
Method in brief: as §1

Avena fatua (AVEFA) = conditions: 15 days after application, 0-100 scale
Method in brief: as §1

[5] = test system: Xanthium strumarium (XANST); conditions: 15 days after application, 0-100 scale
Method in brief: as §1

[6] = test system: Alopecurus myosuroides (ALOMY); conditions: 15 days after application, 0-100 scale
Method in brief: as §1

Orysa sativa (ORYSA) = conditions: 15 days after application; for Herbicidal activity ORYSA: 0-100 scale; for Herbicidal activity on a 0-100 scale, ORYSA: 0=no damage, 100=total kill
Method in brief: as §1

Zea mays (ZEAMX) = conditions: 15 days after application; for Herbicidal activity ZEAMX: 0-100 scale; for Herbicidal activity on a 0-100 scale, ZEAMX: 0=no damage, 100=total kill
Method in brief: as §1

## Cc1nn(C)c(=O)c(-c2c(F)ccc(Cl)c2CCc2ccc(F)cc2)c1O [Compound 1.048, 4-[3-chloro-6-fluoro-2-[2-(4-fluorophenyl)ethyl]phenyl]-5-hydroxy-2,6-dimethyl-pyridazin-3-one]
Sida spinosa (SIDSP); 15 g/Ha
  Herbicidal activity SIDSP: 80
Sida spinosa (SIDSP); 30 g/Ha
  Herbicidal activity SIDSP: 80
Sida spinosa (SIDSP); 60 g/Ha
  Herbicidal activity SIDSP: 80
Sida spinosa (SIDSP); 125 g/Ha
  Herbicidal activity SIDSP: 90
Sida spinosa (SIDSP); 250 g/Ha
  Herbicidal activity SIDSP: 90
Sida spinosa (SIDSP); 500 g/Ha
  Herbicidal activity SIDSP: 90
[1]; 15 g/Ha
  Herbicidal activity on a 0-100 scale, PANMI: 0
[1]; 30 g/Ha
  Herbicidal activity on a 0-100 scale, PANMI: 20
[1]; 60 g/Ha
  Herbicidal activity on a 0-100 scale, PANMI: 30
[1]; 125 g/Ha
  Herbicidal activity on a 0-100 scale, PANMI: 80
[1]; 250 g/Ha
  Herbicidal activity on a 0-100 scale, PANMI: 100
[1]; 500 g/Ha
  Herbicidal activity on a 0-100 scale, PANMI: 100
[2]; 15 g/Ha
  Herbicidal activity on a 0-100 scale, BRAPL: 20
[2]; 30 g/Ha
  Herbicidal activity on a 0-100 scale, BRAPL: 60
[2]; 60 g/Ha
  Herbicidal activity on a 0-100 scale, BRAPL: 80
[2]; 125 g/Ha
  Herbicidal activity on a 0-100 scale, BRAPL: 80
[2]; 250 g/Ha
  Herbicidal activity on a 0-100 scale, BRAPL: 90
[2]; 500 g/Ha
  Herbicidal activity on a 0-100 scale, BRAPL: 100
[3]; 15 g/Ha
  Herbicidal activity on a 0-100 scale, DIGSA: 0
[3]; 30 g/Ha
  Herbicidal activity on a 0-100 scale, DIGSA: 10
[3]; 60 g/Ha
  Herbicidal activity on a 0-100 scale, DIGSA: 20
[3]; 125 g/Ha
  Herbicidal activity on a 0-100 scale, DIGSA: 20
[3]; 250 g/Ha
  Herbicidal activity on a 0-100 scale, DIGSA: 50
[3]; 500 g/Ha
  Herbicidal activity on a 0-100 scale, DIGSA: 70
Galium aparine (GALAP); 15 g/Ha
  Herbicidal activity GALAP: 20
Galium aparine (GALAP); 30 g/Ha
  Herbicidal activity GALAP: 30
Galium aparine (GALAP); 60 g/Ha
  Herbicidal activity GALAP: 50
Galium aparine (GALAP); 125 g/Ha
  Herbicidal activity GALAP: 60
Galium aparine (GALAP); 250 g/Ha
  Herbicidal activity GALAP: 60
Galium aparine (GALAP); 500 g/Ha
  Herbicidal activity GALAP: 80
[4]; 15 g/Ha
  Herbicidal activity EPHHL: 50
[4]; 30 g/Ha
  Herbicidal activity EPHHL: 70
[4]; 60 g/Ha
  Herbicidal activity EPHHL: 90
[4]; 125 g/Ha
  Herbicidal activity EPHHL: 90
[4]; 250 g/Ha
  Herbicidal activity EPHHL: 100
[4]; 500 g/Ha
  Herbicidal activity EPHHL: 100
Setaria faberi (SETFA); 15 g/Ha
  Herbicidal activity on a 0-100 scale, SETFA: 0
Setaria faberi (SETFA); 30 g/Ha
  Herbicidal activity on a 0-100 scale, SETFA: 40
Setaria faberi (SETFA); 60 g/Ha
  Herbicidal activity on a 0-100 scale, SETFA: 40
Setaria faberi (SETFA); 125 g/Ha
  Herbicidal activity on a 0-100 scale, SETFA: 70
Setaria faberi (SETFA); 250 g/Ha
  Herbicidal activity on a 0-100 scale, SETFA: 80
Setaria faberi (SETFA); 500 g/Ha
  Herbicidal activity on a 0-100 scale, SETFA: 100
Bidens pilosa (BIDPI); 15 g/Ha
  Herbicidal activity BIDPI: 70
Bidens pilosa (BIDPI); 30 g/Ha
  Herbicidal activity BIDPI: 70
Bidens pilosa (BIDPI); 60 g/Ha
  Herbicidal activity BIDPI: 70
Bidens pilosa (BIDPI); 125 g/Ha
  Herbicidal activity BIDPI: 70
Bidens pilosa (BIDPI); 250 g/Ha
  Herbicidal activity BIDPI: 100
Bidens pilosa (BIDPI); 500 g/Ha
  Herbicidal activity BIDPI: 100
Glycine max (GLXMA); 15 g/Ha
  Herbicidal activity GLXMA: 70
  Herbicidal activity on a 0-100 scale, GLXMA: 70
Glycine max (GLXMA); 30 g/Ha
  Herbicidal activity GLXMA: 80
  Herbicidal activity on a 0-100 scale, GLXMA: 80
Glycine max (GLXMA); 60 g/Ha
  Herbicidal activity GLXMA: 90
  Herbicidal activity on a 0-100 scale, GLXMA: 90
Glycine max (GLXMA); 125 g/Ha
  Herbicidal activity GLXMA: 90
  Herbicidal activity on a 0-100 scale, GLXMA: 90
Glycine max (GLXMA); 250 g/Ha
  Herbicidal activity GLXMA: 90
  Herbicidal activity on a 0-100 scale, GLXMA: 90
Glycine max (GLXMA); 500 g/Ha
  Herbicidal activity GLXMA: 100
  Herbicidal activity on a 0-100 scale, GLXMA: 100
Sorghum bicolour (SORVU); 15 g/Ha
  Herbicidal activity on a 0-100 scale, SORVU: 0
Sorghum bicolour (SORVU); 30 g/Ha
  Herbicidal activity on a 0-100 scale, SORVU: 30
Sorghum bicolour (SORVU); 60 g/Ha
  Herbicidal activity on a 0-100 scale, SORVU: 70
Sorghum bicolour (SORVU); 125 g/Ha
  Herbicidal activity on a 0-100 scale, SORVU: 70
Sorghum bicolour (SORVU); 250 g/Ha
  Herbicidal activity on a 0-100 scale, SORVU: 80
Sorghum bicolour (SORVU); 500 g/Ha
  Herbicidal activity on a 0-100 scale, SORVU: 90
Poa annua (POAAN); 15 g/Ha
  Herbicidal activity POAAN: 30
Poa annua (POAAN); 30 g/Ha
  Herbicidal activity POAAN: 30
Poa annua (POAAN); 60 g/Ha
  Herbicidal activity POAAN: 80
Poa annua (POAAN); 125 g/Ha
  Herbicidal activity POAAN: 80
Poa annua (POAAN); 250 g/Ha
  Herbicidal activity POAAN: 90
Poa annua (POAAN); 500 g/Ha
  Herbicidal activity POAAN: 90
Eleisine indica (ELEIN); 15 g/Ha
  Herbicidal activity on a 0-100 scale, ELEIN: 0
Eleisine indica (ELEIN); 30 g/Ha
  Herbicidal activity on a 0-100 scale, ELEIN: 50
Eleisine indica (ELEIN); 60 g/Ha
  Herbicidal activity on a 0-100 scale, ELEIN: 60
Eleisine indica (ELEIN); 125 g/Ha
  Herbicidal activity on a 0-100 scale, ELEIN: 60
Eleisine indica (ELEIN); 250 g/Ha
  Herbicidal activity on a 0-100 scale, ELEIN: 80
Eleisine indica (ELEIN); 500 g/Ha
  Herbicidal activity on a 0-100 scale, ELEIN: 80
Avena fatua (AVEFA); 15 g/Ha
  Herbicidal activity AVEFA: 10
Avena fatua (AVEFA); 30 g/Ha
  Herbicidal activity AVEFA: 30
Avena fatua (AVEFA); 60 g/Ha
  Herbicidal activity AVEFA: 60
Avena fatua (AVEFA); 125 g/Ha
  Herbicidal activity AVEFA: 80
Avena fatua (AVEFA); 250 g/Ha
  Herbicidal activity AVEFA: 90
Avena fatua (AVEFA); 500 g/Ha
  Herbicidal activity AVEFA: 90
[5]; 60 g/Ha
  Herbicidal activity XANST: 90
[5]; 125 g/Ha
  Herbicidal activity XANST: 90
[5]; 250 g/Ha
  Herbicidal activity XANST: 90
[5]; 500 g/Ha
  Herbicidal activity XANST: 100
[6]; 15 g/Ha
  Herbicidal activity ALOMY: 20
[6]; 30 g/Ha
  Herbicidal activity ALOMY: 30
[6]; 60 g/Ha
  Herbicidal activity ALOMY: 70
[6]; 125 g/Ha
  Herbicidal activity ALOMY: 80
[6]; 250 g/Ha
  Herbicidal activity ALOMY: 80
[6]; 500 g/Ha
  Herbicidal activity ALOMY: 90
Orysa sativa (ORYSA); 15 g/Ha
  Herbicidal activity ORYSA: 0
  Herbicidal activity on a 0-100 scale, ORYSA: 0
Orysa sativa (ORYSA); 30 g/Ha
  Herbicidal activity ORYSA: 0
  Herbicidal activity on a 0-100 scale, ORYSA: 0
Orysa sativa (ORYSA); 60 g/Ha
  Herbicidal activity ORYSA: 0
  Herbicidal activity on a 0-100 scale, ORYSA: 0
Orysa sativa (ORYSA); 125 g/Ha
  Herbicidal activity ORYSA: 0
  Herbicidal activity on a 0-100 scale, ORYSA: 0
Orysa sativa (ORYSA); 250 g/Ha
  Herbicidal activity ORYSA: 10
  Herbicidal activity on a 0-100 scale, ORYSA: 10
Orysa sativa (ORYSA); 500 g/Ha
  Herbicidal activity ORYSA: 30
  Herbicidal activity on a 0-100 scale, ORYSA: 30
Zea mays (ZEAMX); 15 g/Ha
  Herbicidal activity ZEAMX: 0
  Herbicidal activity on a 0-100 scale, ZEAMX: 0
Zea mays (ZEAMX); 30 g/Ha
  Herbicidal activity ZEAMX: 10
  Herbicidal activity on a 0-100 scale, ZEAMX: 10
Zea mays (ZEAMX); 60 g/Ha
  Herbicidal activity ZEAMX: 50
  Herbicidal activity on a 0-100 scale, ZEAMX: 50
Zea mays (ZEAMX); 125 g/Ha
  Herbicidal activity ZEAMX: 50
  Herbicidal activity on a 0-100 scale, ZEAMX: 50
Zea mays (ZEAMX); 250 g/Ha
  Herbicidal activity ZEAMX: 70
  Herbicidal activity on a 0-100 scale, ZEAMX: 70
Zea mays (ZEAMX); 500 g/Ha
  Herbicidal activity ZEAMX: 100
  Herbicidal activity on a 0-100 scale, ZEAMX: 100
